Reference: US9993494B2, “Compositions and methods for treating fibrotic disease” (eFFECTOR Therapeutics, Inc., priority 2014, dated 2018)

System: normal human lung fibroblasts
Experiment: Ribosomal profiling: translational efficiency in TGFβ-treated fibroblasts
Type: cell-based
Protocol: Ribosomal profiling allows for measurement of changes in transcription and translation on a genome-wide basis accompanying TGFβ-dependent transformation of fibroblasts to myofibroblasts. Ribosomal profiles of the TGFβ-treated fibroblasts from Example 1 (about 6×10^6 cells/10 cm plate) were prepared and analyzed for changes in translational efficiencies with respect to potential disease-associated cellular changes accompanying this TGFβ-induced transformation.
Briefly, cells were washed with cold PBS supplemented with cycloheximide and lysed with 1× mammalian cell lysis buffer for 10 minutes on ice. Lysates were clarified by centrifugation for 10 minutes at 14,000 rpm and supernatants were collected. Cell lysates were processed to generate ribosomal protected fragments and total mRNA according to the instructions included with the ARTseq Ribosome Profiling Kit (Illumina, San Diego, Calif.). Sequencing of total RNA (RNA) and of ribosome-protected fragments of RNA (RPF) was carried out using RNA-Seq methodology according to the manufacturer's instructions (Illumina). To analyze the ribosomal profiles, RNA-Seq reads were processed with tools from the FASTX-Toolkit (fastq_quality_trimmer, fastx_clipper and fastx_trimmer). Unprocessed and processed reads were evaluated for a variety of quality measures using FastQC, and processed reads were mapped to the human genome using TopHat (see, e.g., Trapnell et al., Bioinformatics 25:1105, 2009). Gene-by-gene assessment of the number of fragments strictly and uniquely mapping to the coding region of each gene was conducted using HTSeq-count, a component of the HTSeq package. […] Genes with low counts in either RPF or RNA were excluded from differential analyses. Pathway and network analyses of differential data were conducted using Ingenuity Pathway Analysis (IPA).

With TGFβ the “Log2 TE RPS20” value (ENSG00000008988, 5 replicates) was 1.435, the “change in translational profile of DNASE1L1 caused by TGFβ” value (ENSG00000013563, Control vs. TGFβ) was “D (D = <1.0 to 1.5)” and the “Log2 TE VIM” value (ENSG00000026025, 5 replicates) was 1.002. The “Log2 TE ARHGAP6” value (ENSG00000047648, 5 replicates) was −1.082, the “Log2 TE KITLG” value (ENSG00000049130, 5 replicates) was −2.027 and the “change in translational profile of KITLG caused by TGFβ” value (ENSG00000049130, Control vs. TGFβ) was “A (A = <−2.5)”. The “Log2 TE ADAMTS6” value (ENSG00000049192, 5 replicates) was 2.863, the “change in translational profile of ADAMTS6 caused by TGFβ” value (ENSG00000049192, Control vs. TGFβ) was “F (F = >2.5)” and the “Log2 TE LETMD1” value (ENSG00000050426, 5 replicates) was 1.27. The “change in translational profile of LETMD1 caused by TGFβ” value (ENSG00000050426, Control vs. TGFβ) was “D (D = <1.0 to 1.5)”, the “change in translational profile of PLEKHA5 caused by TGFβ” value (ENSG00000052126, Control vs. TGFβ) was “C (C = <−1.0 to −1.5)” and the “Log2 TE LAMA3” value (ENSG00000053747, 5 replicates) was −1.233. For the same substance, the “Log2 TE SYNE2” value (ENSG00000054654, 5 replicates) was −1.793, the “change in translational profile of EIF4B caused by TGFβ” value (ENSG00000063046, Control vs. TGFβ) was “E (E = <1.5 to 2.5)” and the “Log2 TE RPL18” value (ENSG00000063177, 5 replicates) was 1.612. For the same substance, the “change in translational profile of RPL18 caused by TGFβ” value (ENSG00000063177, Control vs. TGFβ) was “E (E = <1.5 to 2.5)”, the “Log2 TE LIMCH1” value (ENSG00000064042, 5 replicates) was −1.222 and the “change in translational profile of HIPK2 caused by TGFβ” value (ENSG00000064393, Control vs. TGFβ) was “C (C = <−1.0 to −1.5)”. For the same substance, the “Log2 TE ASPM” value (ENSG00000066279, 5 replicates) was −2.175, the “change in translational profile of ASPM caused by TGFβ” value (ENSG00000066279, Control vs. TGFβ) was “A (A = <−2.5)” and the “change in translational profile of RASSF1 caused by TGFβ” value (ENSG00000068028, Control vs. TGFβ) was “D (D = <1.0 to 1.5)”. For the same substance, the “Log2 TE PABPC1” value (ENSG00000070756, 5 replicates) was 1.207, the “change in translational profile of PABPC1 caused by TGFβ” value (ENSG00000070756, Control vs. TGFβ) was “D (D = <1.0 to 1.5)” and the “Log2 TE RPL31” value (ENSG00000071082, 5 replicates) was 1.6. For the same substance, the “change in translational profile of RPL31 caused by TGFβ” value (ENSG00000071082, Control vs. TGFβ) was “E (E = <1.5 to 2.5)”, the “Log2 TE PLD1” value (ENSG00000075651, 5 replicates) was −1.032 and the “change in translational profile of PLD1 caused by TGFβ” value (ENSG00000075651, Control vs. TGFβ) was “B (B = <−1.5 to −2.5)”. For the same substance, the “Log2 TE SNRPA” value (ENSG00000077312, 5 replicates) was 1.462, the “change in translational profile of EDN1 caused by TGFβ” value (ENSG00000078401, Control vs. TGFβ) was “E (E = <1.5 to 2.5)” and the “Log2 TE CDC14B” value (ENSG00000081377, 5 replicates) was −1.331. For the same substance, the “Log2 TE RPS5” value (ENSG00000083845, 5 replicates) was 1.533, the “Log2 TE AURKA” value (ENSG00000087586, 5 replicates) was −1.736 and the “change in translational profile of AURKA caused by TGFβ” value (ENSG00000087586, Control vs. TGFβ) was “B (B = <−1.5 to −2.5)”. The “Log2 TE EPB41L1” value (ENSG00000088367, 5 replicates) was 1.018, the “change in translational profile of EPB41L1 caused by TGFβ” value (ENSG00000088367, Control vs. TGFβ) was “D (D = <1.0 to 1.5)” and the “Log2 TE ARHGAP28” value (ENSG00000088756, 5 replicates) was −1.024. For the same substance, the “Log2 TE RPL6” value (ENSG00000089009, 5 replicates) was 1.107, the “change in translational profile of RPL6 caused by TGFβ” value (ENSG00000089009, Control vs. TGFβ) was “D (D = <1.0 to 1.5)” and the “change in translational profile of P2RX7 caused by TGFβ” value (ENSG00000089041, Control vs. TGFβ) was “B (B = <−1.5 to −2.5)”. The “change in translational profile of KDM2B caused by TGFβ” value (ENSG00000089094, Control vs. TGFβ) was “C (C = <−1.0 to −1.5)”, the “change in translational profile of RPLP0 caused by TGFβ” value (ENSG00000089157, Control vs. TGFβ) was “D (D = <1.0 to 1.5)” and the “Log2 TE IGBP1” value (ENSG00000089289, 5 replicates) was 1.266. For the same substance, the “change in translational profile of IGBP1 caused by TGFβ” value (ENSG00000089289, Control vs. TGFβ) was “E (E = <1.5 to 2.5)”, the “Log2 TE GRAMD1A” value (ENSG00000089351, 5 replicates) was 1.069 and the “Log2 TE IRAK3” value (ENSG00000090376, 5 replicates) was −1.017. For the same substance, the “change in translational profile of IRAK3 caused by TGFβ” value (ENSG00000090376, Control vs. TGFβ) was “C (C = <−1.0 to −1.5)”, the “change in translational profile of PABPC4 caused by TGFβ” value (ENSG00000090621, Control vs. TGFβ) was “D (D = <1.0 to 1.5)” and the “Log2 TE FMO2” value (ENSG00000094963, 5 replicates) was −2.146. The “change in translational profile of FMO2 caused by TGFβ” value (ENSG00000094963, Control vs. TGFβ) was “A (A = <−2.5)”, the “Log2 TE ACOT7” value (ENSG00000097021, 5 replicates) was 1.011 and the “change in translational profile of ACOT7 caused by TGFβ” value (ENSG00000097021, Control vs. TGFβ) was “D (D = <1.0 to 1.5)”. The “change in translational profile of ATP5D caused by TGFβ” value (ENSG00000099624, Control vs. TGFβ) was “D (D = <1.0 to 1.5)”, the “change in translational profile of LGALS1 caused by TGFβ” value (ENSG00000100097, Control vs. TGFβ) was “D (D = <1.0 to 1.5)” and the “Log2 TE EIF3L” value (ENSG00000100129, 5 replicates) was 1.429. For the same substance, the “change in translational profile of EIF3L caused by TGFβ” value (ENSG00000100129, Control vs. TGFβ) was “D (D = <1.0 to 1.5)”, the “Log2 TE RPL3” value (ENSG00000100316, 5 replicates) was 1.78 and the “change in translational profile of RPL3 caused by TGFβ” value (ENSG00000100316, Control vs. TGFβ) was “E (E = <1.5 to 2.5)”. For the same substance, the “Log2 TE TIMM9” value (ENSG00000100575, 5 replicates) was 1.113.
